# Data published in the NIST ThermoML archive (doi:10.1021/je400332j).
# ± gives the expanded uncertainty stated by the source.
# Assay: xn = mol fraction of the nth substance listed
# Conditions: 101 kPa, Liquid; for mass density: Vibrating tube method; for viscosity: Concentric cylinders viscometry
structure (smiles),measurement,setting,value
CCCn1cc[n+](C)c1.F[B-](F)(F)F [1-propyl-3-methylimidazolium tetrafluoroborate] + CCCCCCn1cc[n+](C)c1.F[B-](F)(F)F,mass density,"318.15 K, x1 = 0.1006",1137.6 ± 1 kg/m3
same,mass density,"318.15 K, x1 = 0.2005",1145.2 ± 1.1 kg/m3
same,mass density,"318.15 K, x1 = 0.2995",1153.1 ± 1.1 kg/m3
same,mass density,"318.15 K, x1 = 0.3996",1161.6 ± 1.1 kg/m3
same,mass density,"318.15 K, x1 = 0.4991",1170.4 ± 1.1 kg/m3
same,mass density,"318.15 K, x1 = 0.601",1179.7 ± 1.1 kg/m3
same,mass density,"318.15 K, x1 = 0.7001",1189.3 ± 1.1 kg/m3
same,mass density,"318.15 K, x1 = 0.8",1199.4 ± 1.1 kg/m3
same,mass density,"318.15 K, x1 = 0.8987",1209.9 ± 1.1 kg/m3
same,mass density,"318.15 K, x1 = 1",1221 ± 1.1 kg/m3
same,viscosity,"323.15 K, x1 = 0.1006",55.36 ± 4.5 mPa·s
same,viscosity,"323.15 K, x1 = 0.2005",51.35 ± 4.1 mPa·s
same,viscosity,"323.15 K, x1 = 0.2995",47.9 ± 3.9 mPa·s
same,viscosity,"323.15 K, x1 = 0.3996",44.99 ± 3.6 mPa·s
same,viscosity,"323.15 K, x1 = 0.4991",41.66 ± 3.4 mPa·s
same,viscosity,"323.15 K, x1 = 0.601",38.47 ± 3.1 mPa·s
same,viscosity,"323.15 K, x1 = 0.7001",35.41 ± 2.9 mPa·s
same,viscosity,"323.15 K, x1 = 0.8",32.48 ± 2.6 mPa·s
same,viscosity,"323.15 K, x1 = 0.8987",29.67 ± 2.4 mPa·s
same,viscosity,"323.15 K, x1 = 1",26.83 ± 2.2 mPa·s
same,mass density,"323.15 K, x1 = 0.1006",1134.2 ± 1 kg/m3
same,mass density,"323.15 K, x1 = 0.2005",1141.7 ± 1.1 kg/m3
same,mass density,"323.15 K, x1 = 0.2995",1149.6 ± 1.1 kg/m3
same,mass density,"323.15 K, x1 = 0.3996",1158.1 ± 1.1 kg/m3
same,mass density,"323.15 K, x1 = 0.4991",1166.9 ± 1.1 kg/m3
same,mass density,"323.15 K, x1 = 0.601",1176.1 ± 1.1 kg/m3
same,mass density,"323.15 K, x1 = 0.7001",1185.8 ± 1.1 kg/m3
same,mass density,"323.15 K, x1 = 0.8",1195.8 ± 1.1 kg/m3
same,mass density,"323.15 K, x1 = 0.8987",1206.2 ± 1.1 kg/m3
same,mass density,"323.15 K, x1 = 1",1217.4 ± 1.1 kg/m3
same,viscosity,"328.15 K, x1 = 0.1006",45.26 ± 3.6 mPa·s
same,viscosity,"328.15 K, x1 = 0.2005",42.13 ± 3.4 mPa·s
same,viscosity,"328.15 K, x1 = 0.2995",39.43 ± 3.2 mPa·s
same,viscosity,"328.15 K, x1 = 0.3996",37.15 ± 3 mPa·s
same,viscosity,"328.15 K, x1 = 0.4991",34.53 ± 2.8 mPa·s
same,viscosity,"328.15 K, x1 = 0.601",32.02 ± 2.6 mPa·s
same,viscosity,"328.15 K, x1 = 0.7001",29.61 ± 2.4 mPa·s
same,viscosity,"328.15 K, x1 = 0.8",27.28 ± 2.2 mPa·s
same,viscosity,"328.15 K, x1 = 0.8987",25.04 ± 2 mPa·s
same,viscosity,"328.15 K, x1 = 1",22.77 ± 1.8 mPa·s
same,mass density,"328.15 K, x1 = 0.1006",1130.8 ± 1 kg/m3
same,mass density,"328.15 K, x1 = 0.2005",1138.3 ± 1 kg/m3
same,mass density,"328.15 K, x1 = 0.2995",1146.2 ± 1.1 kg/m3
same,mass density,"328.15 K, x1 = 0.3996",1154.7 ± 1.1 kg/m3
same,mass density,"328.15 K, x1 = 0.4991",1163.4 ± 1.1 kg/m3
same,mass density,"328.15 K, x1 = 0.601",1172.6 ± 1.1 kg/m3
same,mass density,"328.15 K, x1 = 0.7001",1182.3 ± 1.1 kg/m3
same,mass density,"328.15 K, x1 = 0.8",1192.1 ± 1.1 kg/m3
same,mass density,"328.15 K, x1 = 0.8987",1202.7 ± 1.1 kg/m3
same,mass density,"328.15 K, x1 = 1",1213.8 ± 1.1 kg/m3
same,viscosity,"333.15 K, x1 = 0.1006",37.44 ± 3 mPa·s
same,viscosity,"333.15 K, x1 = 0.2005",34.97 ± 2.8 mPa·s
same,viscosity,"333.15 K, x1 = 0.2995",32.83 ± 2.6 mPa·s
same,viscosity,"333.15 K, x1 = 0.3996",31.04 ± 2.5 mPa·s
same,viscosity,"333.15 K, x1 = 0.4991",28.95 ± 2.3 mPa·s
same,viscosity,"333.15 K, x1 = 0.601",26.95 ± 2.2 mPa·s
same,viscosity,"333.15 K, x1 = 0.7001",25.03 ± 2 mPa·s
same,viscosity,"333.15 K, x1 = 0.8",23.15 ± 1.9 mPa·s
same,viscosity,"333.15 K, x1 = 0.8987",21.37 ± 1.7 mPa·s
same,viscosity,"333.15 K, x1 = 1",19.54 ± 1.6 mPa·s
same,mass density,"333.15 K, x1 = 0.1006",1127.4 ± 1 kg/m3
same,mass density,"333.15 K, x1 = 0.2005",1134.9 ± 1 kg/m3
same,mass density,"333.15 K, x1 = 0.2995",1142.7 ± 1.1 kg/m3
same,mass density,"333.15 K, x1 = 0.3996",1151.3 ± 1.1 kg/m3
same,mass density,"333.15 K, x1 = 0.4991",1159.9 ± 1.1 kg/m3
same,mass density,"333.15 K, x1 = 0.601",1169.2 ± 1.1 kg/m3
same,mass density,"333.15 K, x1 = 0.7001",1178.7 ± 1.1 kg/m3
same,mass density,"333.15 K, x1 = 0.8",1188.6 ± 1.1 kg/m3
same,mass density,"333.15 K, x1 = 0.8987",1199.1 ± 1.1 kg/m3
same,mass density,"333.15 K, x1 = 1",1210.2 ± 1.1 kg/m3
same,viscosity,"338.15 K, x1 = 0.1006",31.31 ± 2.5 mPa·s
same,viscosity,"338.15 K, x1 = 0.2005",29.33 ± 2.4 mPa·s
same,viscosity,"338.15 K, x1 = 0.2995",27.63 ± 2.2 mPa·s
same,viscosity,"338.15 K, x1 = 0.3996",26.21 ± 2.1 mPa·s
same,viscosity,"338.15 K, x1 = 0.4991",24.53 ± 2 mPa·s
same,viscosity,"338.15 K, x1 = 0.601",22.92 ± 1.8 mPa·s
same,viscosity,"338.15 K, x1 = 0.7001",21.38 ± 1.7 mPa·s
same,viscosity,"338.15 K, x1 = 0.8",19.85 ± 1.6 mPa·s
same,viscosity,"338.15 K, x1 = 0.8987",18.4 ± 1.5 mPa·s
same,viscosity,"338.15 K, x1 = 1",16.92 ± 1.4 mPa·s
same,mass density,"338.15 K, x1 = 0.1006",1124.1 ± 1 kg/m3
same,mass density,"338.15 K, x1 = 0.2005",1131.5 ± 1 kg/m3
same,mass density,"338.15 K, x1 = 0.2995",1139.3 ± 1 kg/m3
same,mass density,"338.15 K, x1 = 0.3996",1147.8 ± 1.1 kg/m3
same,mass density,"338.15 K, x1 = 0.4991",1156.5 ± 1.1 kg/m3
same,mass density,"338.15 K, x1 = 0.601",1165.7 ± 1.1 kg/m3
same,mass density,"338.15 K, x1 = 0.7001",1175.2 ± 1.1 kg/m3
same,mass density,"338.15 K, x1 = 0.8",1185.2 ± 1.1 kg/m3
same,mass density,"338.15 K, x1 = 0.8987",1195.5 ± 1.1 kg/m3
same,mass density,"338.15 K, x1 = 1",1206.6 ± 1.1 kg/m3
same,viscosity,"343.15 K, x1 = 0.1006",26.45 ± 2.1 mPa·s
same,viscosity,"343.15 K, x1 = 0.2005",24.83 ± 2 mPa·s
same,viscosity,"343.15 K, x1 = 0.2995",23.46 ± 1.9 mPa·s
same,viscosity,"343.15 K, x1 = 0.3996",22.3 ± 1.8 mPa·s
same,viscosity,"343.15 K, x1 = 0.4991",20.96 ± 1.7 mPa·s
same,viscosity,"343.15 K, x1 = 0.601",19.65 ± 1.6 mPa·s
same,viscosity,"343.15 K, x1 = 0.7001",18.4 ± 1.5 mPa·s
same,viscosity,"343.15 K, x1 = 0.8",17.19 ± 1.4 mPa·s
same,viscosity,"343.15 K, x1 = 0.8987",15.98 ± 1.3 mPa·s
same,viscosity,"343.15 K, x1 = 1",14.77 ± 1.2 mPa·s
same,mass density,"343.15 K, x1 = 0.1006",1120.7 ± 1 kg/m3
same,mass density,"343.15 K, x1 = 0.2005",1128.1 ± 1 kg/m3
same,mass density,"343.15 K, x1 = 0.2995",1135.9 ± 1 kg/m3
same,mass density,"343.15 K, x1 = 0.3996",1144.4 ± 1.1 kg/m3
same,mass density,"343.15 K, x1 = 0.4991",1153 ± 1.1 kg/m3
same,mass density,"343.15 K, x1 = 0.601",1162.2 ± 1.1 kg/m3
same,mass density,"343.15 K, x1 = 0.7001",1171.7 ± 1.1 kg/m3
same,mass density,"343.15 K, x1 = 0.8",1181.6 ± 1.1 kg/m3
same,mass density,"343.15 K, x1 = 0.8987",1192 ± 1.1 kg/m3
same,mass density,"343.15 K, x1 = 1",1203 ± 1.1 kg/m3
